Series [1] in a line: Phase I study, pharmacokinetics of XC-302 in patients. The series is classed as in vivo, human. Here is the method:
Detailed pharmacokinetic were analyzed by taking blood samples before (within 1 hour) and after (every 2 hours) dosing on days 1, 28 of cycle 1. Plasma concentrations of XC-302 were measured with a validated liquid chromatography assay. Pharmacokinetic measures, such as the maximum plasma concentration (Cmax) and area under the time-concentration curve (AUC), were estimated in every patient.

The next series concerns KDR. Also noted: method as in earlier work. The following applies: ref unpublished information, personal communication with Wei Mao on January 1, 2013; read-out: IC50, receptor tyrosine kinase KDR; cited from earlier work.
In the next series the test system is PDGFR β. Also noted: method as in earlier work. The following applies: ref unpublished information, personal communication with Wei Mao on January 1, 2013; read-out: IC50, receptor tyrosine kinase PDGFR β; cited from earlier work.
For series [2], the system named is xenografts with cancer of the colon, stomach, or lung. The arrangement: method as in earlier work. The note with it: nude mice, ref unpublished information, personal communication with Wei Mao on January 1, 2013; cited from earlier work.
For series [3], the system named is cell lines with drug resistance mediated by p170/MDR-1 / p-Glycoprotein. The arrangement: method as in earlier work. The following applies: p170/MDR-1 / p-Glycoprotein mediated resistance; ref unpublished information, personal communication with Wei Mao on January 1, 2013; cited from earlier work.
Another series concerns PI3K p110β. The note with it: read-out: IC50 against PI3K isoform p110β; ref unpublished information, personal communication with Wei Mao on January 1, 2013; cited from earlier work.

pIC50: −log10 of the molar value. Structures can show the parent of a compound that is named as a salt.

Regarding `c1cnc2ccc(Nc3nc(NC4CC4)c4nc[nH]c4n3)cc2c1` [XC-302, Puquitinib Mesylate], in series [1] (25 mg to 50 mg, days 1 and 28), the “Pharmacokinetic response (AUClast and Cmax vs dose)” value is reported as “linear”. Moreover, the Tmax in series [1] (human, serum, oral, 25 to 50 mg BID, patients, read-out: Time of peak serum concentration after administration) is approximately 4 h. Besides, the pIC50 in the series with KDR was 6.00; in the series on PDGFR β it was 6.00; in the series with PI3K p110β, 6.16. For the same compound, the “Anti-tumor efficacy in xenografts” value in series [2] is listed as “obvious anti-tumor efficacy”. The “Sensitivity of drug-resistant cell lines” value in series [3] was “similarly sensitive”.

The record behind these values is publication PMC4791286, “Puquitinib mesylate, an inhibitor of phosphatidylinositol 3-kinase p110δ, for treating relapsed or refractory non-Hodgkin's lymphoma” (Oncotarget, 2015).
